Data set [1] has as its system PC-9-GR-step lines (gefitinib-resistant sub-lines of PC-9). As to the kind of experiment: Growth inhibition, microscopic observation. The data set is classed as cell-based, human. To be noted: microscope.
The next data set deals with PC-9-GR-high lines. As to the kind of experiment: Growth inhibition, microscopic observation. In kind it is cell-based, human. To be noted: microscope.
The subject of data set [2] is MDA-MB-453 human breast cancer cells (triple-negative). As to the kind of experiment: Growth inhibition, adherent and non-adherent culture (Alamar Blue). The data set is classed as cell-based. The note with it: MDA-MB-453, cells cultured to prevent adhering. On the procedure: (§1) Specifically, the cells were seeded on a 24 Well plate, and the compounds at a predetermined concentration were added. After cultivation for 5 days, the number of cells was calculated by detecting the fluorescence intensity with Alamar Blue. The culture medium containing the compounds was replaced every day. FIGS. 10 to 12 show an example of the results.
(§2) In addition, the effect was also confirmed when the target cells were cultured to prevent them from adhering to each other.

Data set [3] has as its system MDA-MB-468 human breast cancer cells (triple-negative). The data set is described as above. To be noted: MDA-MB-468, cells cultured to prevent adhering. The data set is classed as cell-based. On the procedure: as §1, §2
For data set [4], the system named is phosphorylation of a threonine residue at position 212 of tau protein by DYRK1A protein. As to the kind of experiment: Inhibitory activity on phosphorylation of tau protein in cultured cells expressing tau and DYRK1A (western blot, Thr212). The note with it: phospho-Thr212 tau. The data set is classed as cell-based. The method, then: The inhibitory activity of the compounds synthesized in the production examples on the phosphorylation of tau protein was evaluated by an evaluation system using the following cultured cells.
The cultured cells that can induce the expressions of tau protein and DYRK1A protein individually and that allow the phosphorylation of the tau protein to be evaluated depending on the activity of the DYRK1A protein were used in the evaluation system. […] Therefore, the inhibitory activity on the phosphorylation of the tau protein can be evaluated by inducing the expressions of both the tau protein and the DYRK1A protein, and evaluating the degree of phosphorylation of a threonine residue at position 212 of the tau protein.
The compounds 1, 4, and 6 to 9 (10 μM) were added to the evaluation system, and the phosphorylation of the tau protein was detected with the antibody that specifically recognizes the phosphorylation of a threonine residue at position 212 of the tau protein. […] The “control” represents the result of adding no compound.
The inhibitory activity of the compounds 1 and 2 on the phosphorylation of tau protein was evaluated in the same manner as the Experimental example 1.
(§3) The “control” represents the result of adding no compound.
The inhibitory activity of the compounds 3, 6, and 9 to 15 on the phosphorylation of tau protein was evaluated in the same manner as the experimental example 1. FIGS. 7 to 9 show an example of the results.

Data set [5] has as its system human lung adenocarcinoma-derived cell lines (PC-9). In words: Growth inhibition, microscopic observation. To be noted: PC-9 lines, microscope. In kind it is cell-based.
Data set [6] has as its system retinoblastoma cell lines WERI. In words: Inhibition of growth of cancer cells (Alamar Blue). The data set is classed as cell-based. On the procedure: as §1
(In general: Resazurin is reduced to fluorescent resorufin, in cell work by metabolically active cells.)

For data set [7], the system named is Down's syndrome-derived acute megakaryoblastic leukemia (AMKL) cells KPAM1. As to the kind of experiment: Inhibition of growth of cancer cells (Alamar Blue). The data set is classed as cell-based. The note with it: KPAM1, cultivation for 5 days. The method, then: as §1
A short description of the next data set: Oral absorbability. In kind it is in vivo, B6J mouse. The note with it: mouse, oral administration, 100 mg/kg, 5% gum arabic, plasma. The method, then: The oral absorbability of the compound 1 was evaluated under the following conditions.
A further data set has as its target DYRK1A (Homo sapiens, UniProt Q13627). As to the kind of experiment: DYRK1A inhibitory capacity in vitro. The data set is classed as biochemical.
Description: as §3

The subject of data set [8] is phosphorylation of tau protein in the brain. As to the kind of experiment: Inhibition of stress-induced phosphorylation of tau protein in the brain. The data set is classed as in vivo. To be noted: mice, 100 mg/kg before stress (ice-cold water 5 minutes), brain tissue western blot. On the procedure: The inhibitory activity of the compounds 1 and 2 on the phosphorylation of tau protein in the brain was evaluated. In the evaluation, a system was used which induced the phosphorylation of tau protein by imposing stress on mice (i.e., bathing the mice in ice-cold water for 5 minutes).
A general note: Immunoblotting shows a protein as a band on a membrane.

The nature of data set [9]: Intracerebral transferability after caudal vein administration. In kind it is in vivo. The note with it: male, Wistar, intravenous, rat, 2 mg/head. On the procedure: The intracerebral transferability of the compound 1 was evaluated under the following conditions. […] In other words, the intracerebral transferability of the compound 1 was confirmed.
Experimental animal: 8-week-old male Wistar rat (about 300 g), caudal vein administration
Administered vehicle: 20% PPG/8% tween 80/saline (2 mL/head)
Compound dosage: 2 mg/head
Sampling time: 3 minutes after administration for plasma; 7 minutes after administration for cerebrospinal fluid

A short description of data set [10]: Oral absorbability and intracerebral transferability (plasma and brain tissue concentration). In kind it is in vivo. The note with it: ICR mouse, 100 mg/kg; for Kp / half-life: male; for Kp: brain tissue / plasma, read-out: Brain tissue/blood ratio (B/P: mL/g); for half-life: plasma and brain tissue, read-out: Half-life in blood and in brain tissue. On the procedure: The oral absorbability and the intracerebral transferability of the compounds 1 and 2 were evaluated under the following conditions. FIG. 6 and Table 1 show an example of the results.
Experimental animal: 7-week-old male ICR mouse, oral administration
Administered vehicle: 0.5% carboxymethylcellulose
Compound dosage: 100 mg/kg
FIG. 6 and Table 1 show an example of the results of measuring a plasma concentration and a brain tissue concentration after oral administration of the compounds 1 and 2. As shown in FIG. 6 and Table 1, the results confirmed that the compounds 1 and 2 had both oral absorbability and intracerebral transferability.

The subject of data set [11] is memory and learning disabilities induced by amyloid-β peptide (25-35). As to the kind of experiment: Remedial action on memory and learning disabilities induced by amyloid-β peptide (water maze, probe test). The data set is classed as in vivo, Swiss mice. The note with it: mice, amyloid-β icv, 100 mg/kg twice a day. The method, then:
The remedial action of the compound 2 on memory and learning disabilities was evaluated. In the evaluation, amyloid-β peptide was administered into the cerebral ventricles of mice, and an evaluation system that induces memory and learning disabilities was used (Maurice et al., 1996). The tests were performed using 6-week-old male Swiss mice, which were divided into groups of 12 (n=12). Amyloid-β peptide (25-35, sequence: Gly-Ser-Asn-Lys-Gly-Ala-Ile-Ile-Gly-Leu-Met) (SEQ ID NO: 1) or scrambled amyloid-β (25-35, sequence: Ala-Lys-Ile-Gly-Asn-Ser-Ile-Gly-Leu-Met-Gly) (SEQ ID NO: 2) which was used as control peptide, was dissolved in distilled water, and each of the peptide solutions was incubated at 37° C. for 4 days.
The compound 2 for medication was dissolved in DMSO, and then diluted with 0.5% methylcellulose, thereby preparing a 10 mg/mL solution. […]
In order to evaluate a reference memory, water maze was performed three times a day using a circular pool (140 cm in diameter and 40 cm in height) and a platform (10 cm in diameter) between the 8th day and the 12th day of the tests. […] During the recording, the total time the mice spent in one-fourth of the area of the circle, including the place where the platform had been located until the previous day, was recorded. […]

[12] abbreviates: compounds of 10 μM, cells expressing tau and DYRK1A.

Some results are limits rather than exact numbers.

On to `CCN1/C(=C/C(C)=O)Sc2ccc3oc4ccccc4c3c21` [Compound 3, (Z)-1-[1-ethylbenzo[2,3]benzofuro[4,5-d]thiazol-2(1H)-ylidene]propan-2-one], for which the “apoptosis-inducing activity on the cancer cells” value (in [1]; with PC-9-GR-high lines; in data set [5]) was “excellent apoptosis-inducing activity” each time. Besides, the “inhibitory effect on the anchorage-independent growth” value in [2] and in data set [3] was “inhibitory effect” in each case. In data set [4] (setting [12]), the “inhibitory effect on the phosphorylation of the tau protein” value (shortened to “inhibitory effect on the phosphorylation”) is recorded as “inhibitory effect”. Besides, the “inhibitory effect on the growth of the cancer cells” value was “inhibitory effect” in data set [6] and “excellent inhibitory effect” in data set [7].

As for `CCN1/C(=C/C(C)=O)Sc2ccc3c(c21)CCO3` [Compound 1, (Z)-1-[1-ethyl-7,8-dihydrobenzofuro[4,5-d]thiazol-2(1H)-ylidene]propan-2-one], the oral absorbability entry in the data set “Oral absorbability” is on record as “confirmed”. On DYRK1A, this compound yielded an IC50 of 49 nM. In addition, in data set [8], the “inhibition of stress-induced phosphorylation of the tau protein in brain” value was “could inhibit the stress-induced phosphorylation of the tau protein”. Besides, the “inhibitory effect on the phosphorylation” value in data set [4] (compounds at 0.3 to 10 μM) is reported as “significant inhibitory effect”. Moreover, the “inhibitory effect on the phosphorylation” value in data set [4] (setting [12]) is reported as “significant inhibitory effect”. The same compound showed a concentration at 7 min in [9] (cerebrospinal fluid, 7 minutes after administration) of 1880 nM. In data set [9] (plasma, 3 minutes after administration), this compound came in with a concentration at 3 min of 13.5 µM. Besides, in data set [10], the Maximum blood concentration is 1900 ng/mL; the “Maximum brain tissue concentration” value was determined as 1700 ng/g; the “Time to maximum concentration in blood and in brain tissue” value is “within 15 minutes”; the Kp was approximately 0.9. For the same compound, in data set [10], the half-life was not above 60 min. The “inhibitory effect on the growth of the cancer cells” value in [6] was “inhibitory effect”.

`CCN1/C(=C/C(C)=O)Sc2ccc3occc3c21` [Compound 2, (Z)-1-[1-ethyl-7,8-benzofuro[4,5-d]thiazol-2(1H)-ylidene]propan-2-one]: the IC50 against DYRK1A was 40 nM. Besides, the “inhibition of stress-induced phosphorylation of the tau protein in brain” value in data set [8] is given as “could inhibit the stress-induced phosphorylation of the tau protein”. Besides, in [4] (compounds at 0.3 to 10 μM), the “inhibitory effect on the phosphorylation” value is “significant inhibitory effect”. Further, the “reference memory in water maze (time to reach the platform)” value in [11] (8th to 12th day) is “improved the reduced memory and learning abilities”. The “probe test (time spent around the platform)” value in [11] (13th day) is “improved the reduced memory and learning abilities”. Also, in [10], the Maximum blood concentration was 8400 ng/mL; the “Maximum brain tissue concentration” value came to 8500 ng/g; the “Time to maximum concentration in blood and in brain tissue” value is 2 h; the Kp was approximately 1. In data set [10], the half-life is not below 240 min.

Broadly, the IC50 is the concentration that inhibits the measured activity by half. A lower IC50 goes with inhibition by little substance. What is called half-life is the time in which the quantity being followed falls by half.

The record behind these values is patent publication US10017524B2, “Compound and pharmaceutical composition for neuropsychological disorder or malignant tumor” (KYOTO UNIVERSITY, priority 2012, dated 2018).
